# Strand notation (5' to 3'): a small letter for the sugar, then the base; units joined by * are phosphorothioate-linked, units joined directly phosphodiester-linked; [ ] holds rarer units or linkages, { } end groups; capitals alone tell only the bases. e = 2'-O-(2-methoxyethyl) (MOE); [5mC] = 5-methylcytosine; d = 2'-deoxy (DNA)
# Test system: Human B7-2 mRNA
# Assay: Human B7-2 mRNA expression in electroporated THP-1 cells induced with LPS and dibutyryl cAMP
# Assay type: cell-based
# Conditions: THP-1 cells electroporated at 10 micromolar oligonucleotide, LPS and dibutyryl cAMP (500 μM) 16 hours
# Text: (§1) The human promonocytic leukaemia cell line, THP-1 (American Type Culture Collection, Manassas, Va.) was maintained in RPMI 1640 growth media supplemented with 10% fetal calf serum (FCS; Life Technologies, Rockville, Md.). A total of 1×10^7 cells were electroporated at an oligonucleotide concentration of 10 micromolar in 2 mm cuvettes, using an Electrocell Manipulator 600 instrument (Biotechnologies and Experimental Research, Inc.) employing 200 V, 1000 μF. Electroporated cells were then transferred to petri dishes and allowed to recover for 16 hrs Cells were then induced with LPS and dibutyryl cAMP (500 μM) for 16 hours. RNA was isolated and processed as described in previous examples.
Substance,% mRNA EXPRESSION [%],% mRNA INHIBITION [%]
113157 (antisense eA*eG*e[5mC]*e[5mC]*e[5mC]*d[5mC]*d[5mC]*dT*dT*dA*dT*dT*dA*d[5mC]*dT*e[5mC]*eA*eT*eG*eG) [compound 113157],13,87
113159 (antisense eA*eG*eT*e[5mC]*eT*d[5mC]*d[5mC]*dT*d[5mC]*dT*dT*dG*dG*d[5mC]*dA*eT*eA*e[5mC]*eG*eG) [compound 113159],43,57
113160 (antisense e[5mC]*e[5mC]*e[5mC]*eA*eT*dA*dA*dG*dT*dG*dT*dG*d[5mC]*dT*d[5mC]*eT*eG*eA*eA*eG) [compound 113160],09,91

# Test system: Human B7-1 mRNA
# Assay: Human B7-1 mRNA expression in electroporated, LPS-induced THP-1 cells
# Assay type: cell-based
# Conditions: THP-1 cells electroporated at 10 micromolar oligonucleotide, LPS 1 μg/ml 16 hours
# Text: as §1, with “hrs.” for “hrs”, “at a final concentration of 1 μg/ml” for “and dibutyryl cAMP (500 μM)”
Substance,% mRNA EXPRESSION [%],% mRNA INHIBITION [%]
113489 (antisense e[5mC]*e[5mC]*e[5mC]*eT*e[5mC]*d[5mC]*dA*dG*dT*dG*dA*dT*dG*dT*dT*eT*eA*e[5mC]*eA*eA) [compound 113489],122,–
113490 (antisense eG*eA*eA*eG*eA*d[5mC]*d[5mC]*d[5mC]*dT*d[5mC]*d[5mC]*dA*dG*dT*dG*eA*eT*eG*eT*eT) [compound 113490],183,–
113491 (antisense e[5mC]*eG*eT*eA*eG*dA*dA*dG*dA*d[5mC]*d[5mC]*d[5mC]*dT*d[5mC]*d[5mC]*eA*eG*eT*eG*eA) [compound 113491],179,–
113492 (antisense eT*eT*e[5mC]*e[5mC]*e[5mC]*dA*dG*dG*dT*dG*d[5mC]*dA*dA*dA*dA*e[5mC]*eA*eG*eG*e[5mC]) [compound 113492],27,73
113493 (antisense eT*eG*eG*e[5mC]*eT*dT*d[5mC]*dA*dG*dA*dT*dG*d[5mC]*dT*dT*eA*eG*eG*eG*eT) [compound 113493],488,–
113494 (antisense e[5mC]*e[5mC]*eT*e[5mC]*e[5mC]*dG*dT*dG*dT*dG*dT*dG*dG*d[5mC]*d[5mC]*e[5mC]*eA*eT*eG*eG) [compound 113494],77,23
113495 (antisense eG*eG*eT*eG*eA*dT*dG*dT*dT*d[5mC]*d[5mC]*d[5mC]*dT*dG*d[5mC]*e[5mC]*eT*e[5mC]*e[5mC]*eG) [compound 113495],43,57
113496 (antisense eG*eA*eT*eG*eG*dT*dG*dA*dT*dG*dT*dT*d[5mC]*d[5mC]*d[5mC]*eT*eG*e[5mC]*e[5mC]*eT) [compound 113496],71,29
113497 (antisense eA*eG*eG*eT*eA*dT*dG*dG*dA*d[5mC]*dA*d[5mC]*dT*dT*dG*eG*eA*eT*eG*eG) [compound 113497],78,22
113498 (antisense eG*eA*eA*eA*eG*dA*d[5mC]*d[5mC]*dA*dG*d[5mC]*d[5mC]*dA*dG*d[5mC]*eA*e[5mC]*e[5mC]*eA*eA) [compound 113498],37,63
113499 (antisense e[5mC]*eA*eG*e[5mC]*eG*dT*dT*dG*d[5mC]*d[5mC]*dA*d[5mC]*dT*dT*d[5mC]*eT*eT*eT*e[5mC]*eA) [compound 113499],25,75
113500 (antisense eG*eT*eG*eA*e[5mC]*d[5mC]*dA*d[5mC]*dA*dG*dG*dA*d[5mC]*dA*dG*e[5mC]*eG*eT*eT*eG) [compound 113500],83,17
113501 (antisense eA*eG*eA*eT*eG*d[5mC]*dG*dA*dG*dT*dT*dT*dG*dT*dG*e[5mC]*e[5mC]*eA*eG*e[5mC]) [compound 113501],36,64
113502 (antisense e[5mC]*e[5mC]*eT*eT*eT*dT*dG*d[5mC]*d[5mC]*dA*dG*dT*dA*dG*dA*eT*eG*e[5mC]*eG*eA) [compound 113502],26,74
113503 (antisense e[5mC]*eG*eG*eT*eT*d[5mC]*dT*dT*dG*dT*dA*d[5mC]*dT*d[5mC]*dG*eG*eG*e[5mC]*e[5mC]*eA) [compound 113503],65,35
113504 (antisense e[5mC]*eG*e[5mC]*eA*eG*dA*dG*d[5mC]*d[5mC]*dA*dG*dG*dA*dT*d[5mC]*eA*e[5mC]*eA*eA*eT) [compound 113504],46,54
113505 (antisense e[5mC]*eT*eT*e[5mC]*eA*dG*d[5mC]*d[5mC]*dA*dG*dG*dT*dG*dT*dT*e[5mC]*e[5mC]*e[5mC]*eG*e[5mC]) [compound 113505],40,60
113506 (antisense eT*eA*eA*e[5mC]*eG*dT*d[5mC]*dA*d[5mC]*dT*dT*d[5mC]*dA*dG*d[5mC]*e[5mC]*eA*eG*eG*eT) [compound 113506],105,–
113507 (antisense eT*eT*e[5mC]*eT*e[5mC]*d[5mC]*dA*dT*dT*dT*dT*d[5mC]*d[5mC]*dA*dA*e[5mC]*e[5mC]*eA*eG*eG) [compound 113507],36,64
113508 (antisense e[5mC]*eT*eG*eT*eT*dG*dT*dG*dT*dT*dG*dA*dT*dG*dG*e[5mC]*eA*eT*eT*eT) [compound 113508],117,–
113509 (antisense e[5mC]*eA*eT*eG*eA*dA*dG*d[5mC]*dT*dG*dT*dG*dG*dT*dT*eG*eG*eT*eT*eG) [compound 113509],62,38
113510 (antisense eA*eG*eG*eA*eA*dA*dA*dT*dG*d[5mC]*dT*d[5mC]*dT*dT*dG*e[5mC]*eT*eT*eG*eG) [compound 113510],43,57
113511 (antisense eT*eG*eG*eG*eA*dG*d[5mC]*dA*dG*dG*dT*dT*dA*dT*d[5mC]*eA*eG*eG*eA*eA) [compound 113511],48,52
113512 (antisense eT*eA*eA*eG*eG*dT*dA*dA*dT*dG*dG*d[5mC]*d[5mC]*d[5mC]*dA*eG*eG*eA*eT*eG) [compound 113512],73,27
113513 (antisense eG*eG*eT*e[5mC]*eA*dG*dG*d[5mC]*dA*dG*d[5mC]*dA*dT*dA*dT*e[5mC]*eA*e[5mC]*eA*eA) [compound 113513],48,52
113515 (antisense eA*eG*eA*eT*e[5mC]*dT*dT*dT*dT*d[5mC]*dA*dG*d[5mC]*d[5mC]*d[5mC]*e[5mC]*eT*eT*eG*e[5mC]) [compound 113515],184,–
113516 (antisense eT*eT*eT*eG*eT*dT*dA*dA*dG*dG*dG*dA*dA*dG*dA*eA*eT*eG*e[5mC]*e[5mC]) [compound 113516],83,17
113517 (antisense eA*eA*eA*eG*eG*dA*dG*dA*dG*dG*dG*dA*dT*dG*d[5mC]*e[5mC]*eA*eG*e[5mC]*e[5mC]) [compound 113517],201,–
113518 (antisense e[5mC]*eA*eA*eG*eA*d[5mC]*dA*dA*dT*dT*d[5mC]*dA*dA*dG*dA*eT*eG*eG*e[5mC]*eA) [compound 113518],97,03

# Reference: patent US7897582B2, “Oligonucleotide compositions and methods for the modulation of the expression of B7 protein” (Isis Pharmaceuticals, Inc., priority 2003, dated 2011)
